From PubChem BioAssay AID624167 (Sanford-Burnham Center for Chemical Genomics, 2012)
pIC50: −log10 of the molar value. Active and inactive are the calls of the source.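 Rule for the calls: active = mean IC50 for reducing PEG3 promoter reporter signal at or below a set limit, with IC50 above the limit in both counter screens; inactive = the rest, including counter screen hits.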

What was measured:
PEG-3 [1] = test: inhibition of PEG-3 promoter-driven reporter – cell-based, HeLa, luciferase, CREF/GAPDH counter-screen panel, dose response (AID 624167); settings: HeLa PEG-Prom luciferase reporter, overnight, CREF/GAPDH counter-screens
PEG-3 [2] = target: PEG-3 (UniProt Q6IN02); test: as above; settings: HeLa PEG-Prom luciferase reporter, overnight, CREF/GAPDH counter-screens, mean of runs
[3] = run 1, dose range 1, individual replicate IC50 per panel
[4] = run 2, dose range 1, individual replicate IC50 per panel

PEG-3 (UniProt Q6IN02), sequence (Q6IN02 whole entry, looked up): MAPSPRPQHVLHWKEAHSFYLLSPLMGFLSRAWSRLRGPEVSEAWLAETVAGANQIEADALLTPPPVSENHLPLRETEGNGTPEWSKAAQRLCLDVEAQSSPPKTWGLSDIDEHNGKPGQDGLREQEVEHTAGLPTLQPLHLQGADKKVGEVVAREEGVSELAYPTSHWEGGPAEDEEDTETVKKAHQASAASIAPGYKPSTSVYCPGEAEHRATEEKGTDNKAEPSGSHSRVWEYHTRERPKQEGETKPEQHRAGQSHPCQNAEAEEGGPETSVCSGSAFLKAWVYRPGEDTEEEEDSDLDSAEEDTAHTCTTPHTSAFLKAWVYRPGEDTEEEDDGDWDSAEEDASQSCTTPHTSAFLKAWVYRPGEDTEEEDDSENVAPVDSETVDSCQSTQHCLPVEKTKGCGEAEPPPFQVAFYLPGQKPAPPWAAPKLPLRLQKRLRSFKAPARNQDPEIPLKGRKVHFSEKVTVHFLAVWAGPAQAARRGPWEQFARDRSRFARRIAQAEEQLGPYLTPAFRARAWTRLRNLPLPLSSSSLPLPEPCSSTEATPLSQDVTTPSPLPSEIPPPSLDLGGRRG

Row | Compound | pIC50 (PEG-3 [1]; [3]) | pIC50 (PEG-3 [1]; [4]) | pIC50 (PEG-3 [2]) | IC50 (PEG-3 [2])
1 | CCCCNC(=O)C(C)N(CCN(C)C)C(=O)CCCCCN1C(=O)NC(c2ccc(Cl)cc2)C(C(=O)OCc2ccccc2)=C1C (configuration not stated) | 4.79 | 4.99 | 4.88 | –
2 | Cc1cc(C)c2sc(N(CCCN(C)C)C(=O)c3ccc(S(=O)(=O)N4CCCc5ccccc54)cc3)nc2c1 | 4.68 | 5.06 | 4.83 | –
3 | Cc1ccc(C(=O)NCCc2cccs2)cc1 | 5.40 | 4.70 | 4.92 | –
4 | CCOC(=O)c1ccc(NC(=O)C2CCCN(S(=O)(=O)c3ccc(F)cc3)C2)cc1 (configuration not stated) | 4.68 | 4.37 | – | inactive
5 | O=C(C=Cc1ccccn1)c1ccccc1 | 4.68 | 4.90 | 4.78 | –
6 | COc1ccc2sc(N(CCCN(C)C)C(=O)c3ccc(S(=O)(=O)N4CCCc5ccccc54)cc3)nc2c1 | 4.68 | 4.66 | – | inactive
7 | CC1=CC(O)C(O)C2(C)C1CC1OC(=O)C(O)C3C(C)C(O)C4(O)OCC13C42 (configuration not stated) | 4.35 | 4.07 | – | inactive
8 | COc1ccc(CCNC(=O)c2cc3c(=O)n4ccccc4nc3n(C3CCCCC3)c2=N)cc1 | < 4.00 | < 4.00 | – | > 100 µM (inactive)
9 | COc1ccc(-c2ccc3[nH]c4c(c3c2)CCN2C[C@@H]([C@H](C)O)[C@@H](N(C)C(=O)Nc3cc(Cl)cc(Cl)c3)C[C@@H]42)cc1 | 4.36 | 4.51 | – | inactive
10 | CCOC(=O)C1CCN(c2cc3c(cc2NC(=O)c2ccccc2OCC)n(C)c(=O)n3C)CC1 | 4.45 | < 4.00 | – | inactive
11 | O=[N+]([O-])c1ccc(NC2CCN(Cc3ccccc3)CC2)c2ccncc12 | 4.62 | 4.66 | – | inactive
12 | COc1cccc(C2CC3C(=O)C=CC2N3Cc2ccccc2)c1 (configuration not stated) | 4.92 | 4.85 | 4.89 | –
13 | O=C1NC(Cc2ccc(O)cc2)c2nc3ccc(F)cc3c(=O)n2-c2cc3ccccc3cc21 (configuration not stated) | 4.70 | 4.46 | – | inactive
14 | CCN(CC)CCNC(=O)c1ccc(NC(=O)c2cccc(S(=O)(=O)N(C)C3CCCCC3)c2)cc1 | 4.54 | 4.59 | – | inactive
15 | Cc1cc(/C=c2/sc3nc4ccccc4n3c2=O)c(C)n1-c1ccccn1 | 4.66 | 4.51 | – | inactive
16 | O=C(Nc1ccccc1)c1nc[nH]c1C(=O)NCCCCNC(=O)c1[nH]cnc1C(=O)Nc1ccccc1 | 4.75 | 5.31 | 4.95 | –
17 | COc1ccc(/C=C/C(=O)c2ccc3c4c(cccc24)CC3)cc1OC | 4.50 | 4.38 | – | inactive
18 | CCOC(=O)c1c(NC(=O)CSc2nnnn2-c2ccccc2OCC)sc2c1CC(C)(C)NC2(C)C | 4.71 | 4.40 | – | inactive
19 | O=Nc1c(O)ccc2cc(S(=O)(=O)O)ccc12 | 5.04 | 4.85 | 4.93 | –
20 | CN(C)CCNc1ccc2nnn3c4ccc(O)cc4c(=O)c1c23 | 4.34 | 4.37 | – | inactive
21 | CC(C(=O)NC1CCCC1)N(C(=O)Cn1nnc(-c2ccc(F)cc2)n1)c1ccccc1F (configuration not stated) | 4.64 | 4.16 | – | inactive
22 | Cc1ccc(S(=O)(=O)CCSC(=N)N)cc1 | 4.44 | 4.37 | – | inactive

Row | Compound | pIC50 (PEG-3 [1]; [3]) | pIC50 (PEG-3 [1]; [4]) | pIC50 (PEG-3 [2]) | IC50 (PEG-3 [2])
23 | COc1cc(/C=C/C(=O)N2CCC=CC2=O)cc(OC)c1OC | 4.80 | 4.92 | 4.85 | –
24 | CCN(CC)C(=O)Cn1cc(/C=C2\C(=O)NC(=O)N(c3ccccc3F)C2=O)c2ccccc21 | 4.83 | 4.88 | 4.85 | –
25 | COC(=O)c1c(NC(=O)c2ccc([N+](=O)[O-])o2)sc2c1CCN(C(C)C)C2 | 4.72 | 4.93 | 4.81 | –
26 | O=C(C[C@H]1C[C@H](C(=O)N2CCCCC2)[C@@]2(CCc3ccccc3)c3[nH]c4ccc(Cl)cc4c3CCN2C1=O)NCCc1ccccn1 | 4.75 | 4.59 | – | inactive
27 | COc1ccc(-c2cc(C(F)F)n3ncc(C(=O)n4ccnc4C)c3n2)cc1 | 4.74 | 5.16 | 4.90 | –
28 | COc1cc(CNCCN2CCOCC2)ccc1OCc1ccc(Cl)cc1Cl | 4.70 | 4.71 | 4.70 | –
29 | O=C1CSC(=S)N1Cc1cccnc1 | 4.55 | 5.12 | 4.75 | –
30 | CNCC[C@@H](Oc1ccc(C(F)(F)F)cc1)c1ccccc1 | 4.57 | 4.27 | – | inactive
31 | O=C1NC(=O)N(Cc2ccc(F)cc2)C(=O)/C1=C\C=C\c1ccco1 | 4.78 | 4.89 | 4.83 | –
32 | COc1cc(N=Nc2c(O)c3ccccc3[nH]c2=O)c(OC)cc1N=Nc1ccccc1 | < 4.00 | < 4.00 | – | > 100 µM (inactive)
33 | CN(C)CC1CCC/C(=C\c2ccc(OC(=O)/C=C/c3ccccc3)cc2)C1=O (configuration not stated) | 4.66 | 5.14 | 4.84 | –
34 | CSc1ccc(CN(C)C(=O)C(Cc2ccccc2)NC(=O)c2ccccc2)cc1 (configuration not stated) | 4.67 | 4.61 | – | inactive
35 | CC(C)c1ccc(NC(=O)Nc2nc(C(C)N)cs2)cc1 (configuration not stated) | 4.70 | 4.86 | 4.77 | –
36 | O=C(Nc1ccc(-c2cn3ccsc3n2)cc1)c1ccc(F)c(S(=O)(=O)N2CCOCC2)c1 | < 4.00 | < 4.00 | – | > 100 µM (inactive)
37 | CCn1c2ccccc2c2cc(NC(=O)C(C)OC(=O)c3ccc(NC(=O)CC#N)cc3)ccc21 (configuration not stated) | 4.38 | 4.41 | – | inactive
38 | CCN1CCN(CCNC(=O)c2ccc(/C=C3\Sc4ccccc4N(Cc4ccccc4F)C3=O)cc2)CC1 | 4.69 | 5.02 | 4.83 | –
39 | O=c1c2ccccc2nc(CSc2ncnc3nc[nH]c23)n1-c1ccc(Cl)c(Cl)c1 | 5.06 | < 4.00 | – | inactive
40 | CC(=O)OC(C)(C)/C=C/C(=O)C(C)(O)C1[C@H](O)C[C@@]2(C)C3CC=C4C(CC[C@@H](O)C4(C)C)[C@]3(CO)C(=O)C[C@]12C (some centres not stated) | 4.33 | > 6.70 | – | inactive
41 | COc1ccc(CC(N)c2csc(NC(=O)Nc3cc(OC)ccc3OC)n2)cc1 (configuration not stated) | 4.78 | 4.81 | 4.80 | –
42 | COc1ccc(-c2oc3ccc(-c4cc(OC)c(OC)c(OC)c4)cc3c2C#Cc2ccccn2)cc1 | 5.54 | 4.67 | 4.91 | –
43 | COc1ccc(OC)c(-c2cc(C(=O)N3CCN(c4ncccn4)CC3)c3ccccc3n2)c1 | 4.46 | < 4.00 | – | inactive
44 | Cn1c(=O)c(C(=O)CCl)c(N)n(Cc2ccccc2)c1=O | 4.54 | 4.88 | – | inactive

Row | Compound | pIC50 (PEG-3 [1]; [3]) | pIC50 (PEG-3 [1]; [4]) | pIC50 (PEG-3 [2]) | IC50 (PEG-3 [2])
45 | CC(=O)NC(c1ccc(C)cc1)c1cc(Cl)c2cccnc2c1O (configuration not stated) | 5.49 | < 4.00 | – | inactive
46 | CN(C)CCNc1ncnc2c1sc1nc(N3CCCC3)c3c(c12)CC(C)(C)OC3 | 4.49 | 4.88 | – | inactive
47 | CCN(CC)c1ccc2nc3ccc(N)cc3[n+](-c3ccccc3)c2c1 | 5.00 | 4.91 | 4.95 | –
48 | COc1ccc(-c2cc(-c3ccc(F)cc3)nc(N3CCN(C)CC3)n2)cc1 | 4.67 | < 4.00 | – | inactive
49 | FC(F)Sc1ccc(NC(=S)NC(c2ccccc2)c2ccccc2)cc1 | 4.70 | 4.79 | 4.74 | –
50 | CS(=O)(=O)c1ccc2nc(NC(=O)CCS(=O)(=O)c3ccccc3)sc2c1 | < 4.00 | 4.72 | – | inactive
51 | Cc1ccc(-c2nnc(N3CCN(c4ccccn4)CC3)c3ccccc23)cc1 | 4.68 | 4.81 | 4.74 | –
52 | Cc1ccc(S(=O)(=O)c2nc(-c3ccccc3Cl)oc2N(C)C2CCN(C)CC2)cc1 | 4.49 | 4.69 | – | inactive
53 | Cc1ccc2sc(N(CCCN(C)C)C(=O)c3ccc(S(=O)(=O)N(C)Cc4ccccc4)cc3)nc2c1C | 4.72 | 5.07 | 4.86 | –
54 | Cc1c(C(=O)Nc2ccc(S(=O)(=O)N(C)C3CCN(C)CC3)cc2)oc2c(Cl)cccc12 | 4.78 | 5.04 | 4.89 | –
55 | COc1ccc(-n2cc(CNC3CCN(C)CC3)c(-c3cccc(F)c3)n2)cc1 | 4.58 | 4.81 | – | inactive
56 | CC(C)(C)c1ccc(CN2N=Nc3ccccc3S2(=O)=O)cc1 | 4.51 | 4.40 | – | inactive
57 | O=C(NC1CCCCC1)Sc1ccc(Cl)cc1 | 4.51 | 4.72 | – | inactive
58 | Cc1nc(-c2ccc(F)cc2)c(CC(=O)N(C)CC(=O)Nc2ccc(Cl)c(C(F)(F)F)c2)s1 | 4.59 | 4.47 | – | inactive
59 | CCCCN(C)CCNC(=O)c1cc(-c2cccnc2)nc2ccc(S(=O)(=O)N3CCC(C)CC3)cc12 | 4.99 | 4.81 | 4.89 | –
60 | CCCC(=O)N1CCCC(c2cc(C(=O)Nc3ccccc3)no2)C1 (configuration not stated) | 5.06 | 4.84 | 4.94 | –
61 | COc1cccc(C(=O)c2sc(NC(C)C)nc2N)c1 | 4.78 | 4.87 | 4.82 | –
62 | COc1ccccc1C1c2ccc3ccccc3c2Oc2ncn(CCCO)c(=N)c21 (configuration not stated) | 4.76 | 4.85 | 4.80 | –
63 | CCCN1C/C(=C/c2cccc([N+](=O)[O-])c2)C(=O)/C(=C/c2cccc([N+](=O)[O-])c2)C1 | 5.17 | < 4.00 | – | inactive
64 | COc1ccc(-n2c(/C=C/c3ccc(O)c(OC)c3)nc3ccccc3c2=O)cc1 | 4.80 | 4.80 | 4.80 | –
